Our source for the IC50 values is patent US8436023B2, “Cyclohexyl-azetidinyl antagonists of CCR2” (Janssen Pharmaceutica N.V., priority 2010, dated 2013).

This test addresses T1, CCR2 (Homo sapiens, UniProt P41597).
T1 construct: host or cells: THP-1 human monocytic cells
T1 sequence (P41597 1-360 isoform P41597-2): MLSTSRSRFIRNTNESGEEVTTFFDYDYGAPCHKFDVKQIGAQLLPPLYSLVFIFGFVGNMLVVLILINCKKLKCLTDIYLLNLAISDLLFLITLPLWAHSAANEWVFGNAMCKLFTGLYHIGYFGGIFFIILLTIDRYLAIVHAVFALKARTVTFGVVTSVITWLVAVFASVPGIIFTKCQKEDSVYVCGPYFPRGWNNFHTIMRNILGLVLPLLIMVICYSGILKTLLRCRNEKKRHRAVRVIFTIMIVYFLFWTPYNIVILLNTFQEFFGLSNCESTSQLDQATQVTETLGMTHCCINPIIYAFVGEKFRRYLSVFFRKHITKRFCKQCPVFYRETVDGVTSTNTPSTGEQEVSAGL
Briefly: MCP-1 Receptor Binding Assay in THP-1 Cells. The settings on record: 0.5 nM 125I labeled MCP-1, 2 hours at 30° C., less polar isomer tested where stated, read-out: Inhibition of MCP-1 Binding IC50, CCR2 Binding. How it is done: MCP-1 Receptor Binding Assay in THP-1 Cells
Human monocytic cell line THP-1 cells were obtained from American Type Culture Collection (Manassas, Va., USA). The THP-1 cells were grown in RPMI-1640 (RPMI: Roswell Park Memorial Institute Medium-cell culture growth media) supplemented with 10% fetal bovine serum in a humidified 5% CO2 atmosphere at 37° C. The cell density was maintained […].
THP-1 (cells were incubated with 0.5 nM ^125I labeled MCP-1 (Perkin-Elmer Life Sciences, Inc. Boston, Mass.) in the presence of varying concentrations of either unlabeled MCP-1 (R & D Systems, Minneapolis, Minn.) or test compound for 2 hours at 30° C. in a 96 well plate. Cells were then harvested onto a filter plate, dried, and 20 μL of Microscint 20 was added to each well. Plates were counted in a TopCount NXT, Microplate Scintillation & Luminescence Counter (Perkin-Elmer Life Sciences, Inc. Boston, Mass.). Blank values (buffer only) were subtracted from all values and drug treated values were compared to vehicle treated values. 1 μM cold MCP-1 was used for nonspecific binding.
Where an IC50 value was not obtained for a particular compound, the percent inhibition is provided at a test concentration of 25 μM.

As a reminder, the IC50 is the concentration that gives 50% inhibition. Regarding `Cn1nc(NCC(=O)NC2CN(C3CCC(O)(c4ncco4)CC3)C2)c2cc(C(F)(F)F)ccc21` (centres unmarked) [Example 26, N-[1-(4-Hydroxy-4-oxazol-2-yl-cyclohexyl)-azetidin-3-yl]-2-(1-methyl-5-trifluoromethyl-1H-indazol-3-ylamino)-acetamide], the IC50 amounted to 0.146 µM. The value for `Cn1ccnc1C1(O)CCC(N2CC(NC(=O)CNc3nn(C)c4ccc(C(F)(F)F)cc34)C2)CC1` (centres unmarked) [Example 27, N-{1-[4-Hydroxy-4-(1-methyl-1H-imidazol-2-yl)-cyclohexyl]-azetidin-3-yl}-2-(1-methyl-5-trifluoromethyl-1H-indazol-3-ylamino)-acetamide] was 1.4 µM; that for `Cc1ncc(C2(O)CCC(N3CC(NC(=O)CNc4nn(C)c5ccc(C(F)(F)F)cc45)C3)CC2)s1` (centres unmarked) [Example 28, N-{-[4-Hydroxy-4-(2-methyl-thiazol-5-yl)-cyclohexyl]-azetidin-3-yl}-2-(1-methyl-5-trifluoromethyl-1H-indazol-3-ylamino)-acetamide] was 0.019 µM.

On to `Cn1nc(NCC(=O)NC2CN(C3CCC(O)(c4ccccc4)CC3)C2)c2cc(C(F)(F)F)ccc21` (centres unmarked) [Example 29, N-[1-(4-Hydroxy-4-phenyl-cyclohexyl)-azetidin-3-yl]-2-(1-methyl-5-trifluoromethyl-1H-indazol-3-ylamino)-acetamide], for which the half-inhibitory concentration (IC50) came to 0.019 µM. The value for `Cc1ccc(C2(O)CCC(N3CC(NC(=O)CNc4nn(C)c5ccc(C(F)(F)F)cc45)C3)CC2)cn1` (centres unmarked) [Example 30, N-{1-[4-Hydroxy-4-(6-methyl-pyridin-3-yl)-cyclohexyl]-azetidin-3-yl}-2-(1-methyl-5-trifluoromethyl-1H-indazol-3-ylamino)-acetamide] was 0.0075 µM. For the compound `Cn1nc(NCC(=O)NC2CN(C3CCC(NC(=O)OC(C)(C)C)CC3)C2)c2cc(C(F)(F)F)ccc21` (centres unmarked) [Example 31, (4-{3-[2-(1-Methyl-5-trifluoromethyl-1H-indazol-3-ylamino)-acetylamino]-azetidin-1-yl}-cyclohexyl)-carbamic acid tert-butyl ester], the IC50 came to 0.076 µM.

As for `CCOC(=O)C1CCC(N2CC(NC(=O)CNc3nn(C)c4ccc(C(F)(F)F)cc34)C2)CC1` (centres unmarked) [Example 32, 4-{3-[2-(1-Methyl-5-trifluoromethyl-1H-indazol-3-ylamino)-acetylamino]-azetidin-1-yl}-cyclohexane carboxylic acid ethyl ester], the IC50 is 0.013 µM.

`Cn1nc(NCC(=O)NC2CN(C3CCC(CO)CC3)C2)c2cc(C(F)(F)F)ccc21` (centres unmarked) [Example 33, N-[1-(4-Hydroxymethyl-cyclohexyl)-azetidin-3-yl]-2-(1-methyl-5-trifluoromethyl-1H-indazol-3-ylamino)-acetamide]: the concentration for half-maximal inhibition (IC50) was determined as 0.044 µM. For the compound `CCOCC1CCC(N2CC(NC(=O)CNc3nn(C)c4ccc(C(F)(F)F)cc34)C2)CC1` (centres unmarked) [Example 34, N-[1-(4-Ethoxymethyl-cyclohexyl)-azetidin-3-yl]-2-(1-methyl-5-trifluoromethyl-1H-indazol-3-ylamino)-acetamide], the concentration for half-maximal inhibition (IC50) is 0.027 µM.

With `CCOC1CCC(N2CC(NC(=O)CNc3nn(C)c4ccc(C(F)(F)F)cc34)C2)CC1` (centres unmarked) [Example 36, N-[1-(4-Ethoxy-cyclohexyl)-azetidin-3-yl]-2-(1-methyl-5-trifluoromethyl-1H-indazol-3-ylamino)-acetamide], the IC50 came to 0.228 µM.

`C=CCOC1CCC(N2CC(NC(=O)CNc3nn(C)c4ccc(C(F)(F)F)cc34)C2)CC1` (centres unmarked) [Example 37, N-[1-(4-Allyloxy-cyclohexyl)-azetidin-3-yl]-2-(1-methyl-5-trifluoromethyl-1H-indazol-3-ylamino)-acetamide]: the IC50 was found to be 0.136 µM.

In the case of `Cn1nc(NCC(=O)NC2CN(C3CCC(C#N)CC3)C2)c2cc(C(F)(F)F)ccc21` (centres unmarked) [Example 38, N-[1-(4-Cyano-cyclohexyl)-azetidin-3-yl]-2-(1-methyl-5-trifluoromethyl-1H-indazol-3-ylamino)-acetamide], the IC50 is 0.15 µM.

As to `Cn1nc(NCC(=O)NC2CN(C3CCC(C(N)=O)CC3)C2)c2cc(C(F)(F)F)ccc21` (centres unmarked) [Example 39, 4-{3-[2-(1-Methyl-5-trifluoromethyl-1H-indazol-3-ylamino)-acetylamino]-azetidin-1-yl}-cyclohexane carboxylic acid amide], the half-maximal inhibitory concentration (IC50) turned out to be 0.38 µM.

Turning to `Cn1nc(NCC(=O)NC2CN(C3CCC(C(=O)NCCO)CC3)C2)c2cc(C(F)(F)F)ccc21` (centres unmarked) [Example 40, 4-{3-[2-(1-Methyl-5-trifluoromethyl-1H-indazol-3-ylamino)-acetylamino]-azetidin-1-yl}-cyclohexane carboxylic acid (2-hydroxy-ethyl)-amide], the IC50 turned out to be 0.3 µM. The value for `O=C(CNc1n[nH]c2ccc(C(F)(F)F)cc12)NC1CN(C2CCC(O)(c3cccnc3)CC2)C1` (centres unmarked) [Example 41, N-[1-(4-Hydroxy-4-pyridin-3-yl-cyclohexyl)-azetidin-3-yl]-2-(5-trifluoromethyl-1H-indazol-3-ylamino)-acetamide] was 0.031 µM; that for `O=C(CNc1n[nH]c2ccc(C(F)(F)F)cc12)NC1CN(C2CCC(O)(c3cncs3)CC2)C1` (centres unmarked) [Example 42, N-[1-(4-Hydroxy-4-thiazol-5-yl-cyclohexyl)-azetidin-3-yl]-2-(5-trifluoromethyl-1H-indazol-3-ylamino)-acetamide] was 0.016 µM; that for `Cc1ccc(C2(O)CCC(N3CC(NC(=O)CNc4n[nH]c5ccc(C(F)(F)F)cc45)C3)CC2)cn1` (centres unmarked) [Example 43, N-{1-[4-Hydroxy-4-(6-methyl-pyridin-3-yl)-cyclohexyl]-azetidin-3-yl}-2-(5-trifluoromethyl-1H-indazol-3-ylamino)-acetamide] was 0.0058 µM. Turning to `COc1ccc(C2(O)CCC(N3CC(NC(=O)CNc4n[nH]c5ccc(C(F)(F)F)cc45)C3)CC2)cn1` (centres unmarked) [Example 44, N-{1-[4-Hydroxy-4-(6-methoxy-pyridin-3-yl)-cyclohexyl]-azetidin-3-yl}-2-(5-trifluoromethyl-1H-indazol-3-ylamino)-acetamide], the IC50 was 0.016 µM. The value for `O=C(CNc1n[nH]c2ccc(C(F)(F)F)cc12)NC1CN(C2CCC(c3ccc4c(c3)OCO4)CC2)C1` (centres unmarked) [Example 45, N-[1-(4-Benzo[1,3]dioxol-5-yl-cyclohexyl)-azetidin-3-yl]-2-(5-trifluoromethyl-1H-indazol-3-ylamino)-acetamide] was 0.0066 µM; that for `NC(=O)Cc1ccc(C2CCC(N3CC(NC(=O)CNc4n[nH]c5ccc(C(F)(F)F)cc45)C3)CC2)cc1` (centres unmarked) [Example 47, 2-[4-(4-{3-[2-(5-Trifluoromethyl-1H-indazol-3-ylamino)-acetylamino]-azetidin-1-yl}-cyclohexyl)-phenyl]-acetamide] was 0.012 µM; that for `N#CC1CCC(N2CC(NC(=O)CNc3n[nH]c4ccc(C(F)(F)F)cc34)C2)CC1` (centres unmarked) [Example 48, N-[1-(4-Cyano-cyclohexyl)-azetidin-3-yl]-2-(5-trifluoromethyl-1H-indazol-3-ylamino)-acetamide] was 0.43 µM. As for `CCOC(=O)C1CCC(N2CC(NC(=O)CNc3n[nH]c4ccc(C(F)(F)F)cc34)C2)CC1` (centres unmarked) [Example 50, 4-{3-[2-(5-Trifluoromethyl-1H-indazol-3-ylamino)-acetylamino]-azetidin-1-yl}-cyclohexane carboxylic acid ethyl ester], the IC50 turned out to be 0.027 µM.

Regarding `CC(C)(C)OC(=O)NC1CCC(N2CC(NC(=O)CNc3n[nH]c4ccc(C(F)(F)F)cc34)C2)CC1` (centres unmarked) [Example 51, (4-{3-[2-(5-Trifluoromethyl-1H-indazol-3-ylamino)-acetylamino]-azetidin-1-yl}-cyclohexyl)-carbamic acid tert-butyl ester], the IC50 is 0.087 µM.

For the compound `CC(C)C1CCC(N2CC(NC(=O)CNc3n[nH]c4ccc(C(F)(F)F)cc34)C2)CC1` (centres unmarked) [Example 52, N-[1-(4-Isopropyl-cyclohexyl)-azetidin-3-yl]-2-(5-trifluoromethyl-1H-indazol-3-ylamino)-acet amide], the half-inhibitory concentration (IC50) amounted to 0.37 µM. The value for `O=C(CNc1n[nH]c2ccc(C(F)(F)F)cc12)NC1CN(C2CCC(n3ccccc3=O)CC2)C1` (centres unmarked) [Example 53, N-{1-[4-(2-Oxo-2H-pyridin-1-yl)-cyclohexyl]-azetidin-3-yl}-2-(5-trifluoromethyl-1H-indazol-3-ylamino)-acetamide] was 0.063 µM; that for `Cn1nc(NCC(=O)NC2CN(C3CCC(O)(c4nccs4)CC3)C2)c2cc(OC(F)(F)F)ccc21` (centres unmarked) [Example 54, N-[1-(4-Hydroxy-4-thiazol-2-yl-cyclohexyl)-azetidin-3-yl]-2-(1-methyl-5-trifluoromethoxy-1H-indazol-3-ylamino)-acetamide] was 0.035 µM.
